Counter-ions that a name gives are not always drawn.
What was measured:
Assay type in all cases: in vivo, rat
[1] = tested on: rats with acute myocardial ischemia; test: Area of myocardial infarction in rats with acute myocardial ischemia (coronary artery ligation); details: 10 mg/kg intragastric; 24 h after coronary artery ligation
Description: (§1) At 0.5 h after the rats of these groups were administered intragastrically, the standard II lead electrocardiogram (before modeling) was recorded, and the height of ST-T segment was measured. The rats of sham operation group were then subjected to coronary artery braid without ligation, and the rats of other groups were subjected to coronary artery ligation in accordance with the following method to establish cute myocardial ischemia models. The rats were subjected to etherization, fixed at supine position, and their normal electrocardiograms (before modeling) were recorded. The skin of left thorax was incised under aseptic conditions, the 4th intercostal muscles were isolated in blunt way, the heart was extruded by light pressure to the right thorax, the left anterior descending coronary artery was ligated at a position 2˜3 mm departing from the left coronary artery origin and between the pulmonary conus and the left auricle of heart, then the heart was sent back to thorax cavity immediately and sutured the incision. Penicillin was smeared topically for the prevention of infections. After operation, the electrocardiogram of postischemia was recorded immediately (at 0 min after modeling), and the height of ST-T segment was measured.

anesthetized rats = test: Blood pressure and left ventricular function of anesthetized rats; details: for change-rate of left intraventricular pressure MAX / change-rate of left intraventricular pressure, -MAX / contractive pressure / diastolic pressure / heart rate / left intraventricular pressure / mean arterial pressure: 11.4 mg/kg duodenal
Description: All data were input into PowerLab/8Sp data acquisition and processing system via RM-6000 multi-channel polygraph, and recorded, analyzed and processed by PowerLab/8Sp.
The abdomen was opened 1.5 cm below xiphoid bone to isolate duodenum, a small incision was formed on the duodenum away from blood vessels by ophthalmic scissors, a catheter was inserted and the incision was fixed by suture for administration. After the end of operation and a further waiting period of 30 min, normal data were recorded once the indexes to be monitored were stable.
Test drugs were duodenally administered via the catheter, and the indexes were monitored 5, 15, 30, 60, 90 and 120 min after the administration. The change ratios of the indexes were calculated in accordance with the following formula, and were used for statistic analysis among groups.

malondialdehyde (MDA) = test: Serum MDA content in rats with myocardial ischemia; details: 10 mg/kg intragastric; serum, 24 h after ligation
Description: as §1

[2] = tested on: creatine kinase isoenzyme (CK-MB); test: Serum CK-MB activity in rats with myocardial ischemia; details: 10 mg/kg intragastric; serum, 24 h after ligation
Description: as §1

[3] = tested on: lactate dehydrogenase (LDH); test: Serum LDH activity in rats with myocardial ischemia; details: 10 mg/kg intragastric; serum, 24 h after ligation
Description: as §1

[4] = tested on: superoxide dismutase (SOD); test: Serum SOD activity in rats with myocardial ischemia; details: 10 mg/kg intragastric; serum, 24 h after ligation
Description: as §1

creatine kinase (CK) = test: Serum CK activity in rats with myocardial ischemia; details: 10 mg/kg intragastric; serum, 24 h after ligation
Description: as §1

[5] = tested on: rats with acute myocardial ischemia; test: ST-T segment of ECG in rats with myocardial ischemia; details: 10 mg/kg intragastric
Description: as §1

In the case of `COc1ccc(CCN(C)CCCC(C#N)(c2ccc(OC)c(OC)c2)C(C)C)cc1OC` (stereo not drawn) [Verapamil, verapamil hydrochloride, reference compound], the Infarct region weight [1] is reported as 0.18 ± 0.04 g, the Non-infarct region weight [1] is reported as 0.46 ± 0.08 g and the “Percentage (infarct cardiac muscles of whole ventricle, by weight)” value [1] is reported as 27.60 ± 5.03 %. The Ventricle weight [1] was 0.65 ± 0.09 g, the “change-rate of left intraventricular pressure MAX” value (anesthetized rats; 5 min after administration) was 4857.7 ± 1002.4 mmHg/s and the “change-rate of left intraventricular pressure, -MAX” value (“change-rate … -MAX” for short) (anesthetized rats; 5 min after administration) was −3812.9 ± 779.3 mm/Hg/s. The contractive pressure (anesthetized rats; 5 min after administration) was 115.30 ± 19.35 mmHg, the diastolic pressure (anesthetized rats; 5 min after administration) was 59.69 ± 12.55 mmHg and the heart rate (anesthetized rats; 5 min after administration) was 345.03 ± 33.81 beat/min. The left intraventricular pressure (anesthetized rats; 5 min after administration) was 128.71 ± 14.20 mmHg, the mean arterial pressure (anesthetized rats; 5 min after administration) was 78.22 ± 14.31 mmHg and the “change-rate of left intraventricular pressure MAX” value (anesthetized rats; 15 min after administration) was 4284.9 ± 793.2 mmHg/s. The “change-rate … -MAX” value (anesthetized rats; 15 min after administration) was −3548.9 ± 707.7 mm/Hg/s, the contractive pressure (anesthetized rats; 15 min after administration) was 98.48 ± 16.13 mmHg and the diastolic pressure (anesthetized rats; 15 min after administration) was 50.08 ± 9.88 mmHg. The heart rate (anesthetized rats; 15 min after administration) was 324.96 ± 36.20 beat/min, the left intraventricular pressure (anesthetized rats; 15 min after administration) was 120.22 ± 12.98 mmHg and the mean arterial pressure (anesthetized rats; 15 min after administration) was 66.21 ± 11.57 mmHg. The “change-rate of left intraventricular pressure MAX” value (anesthetized rats; 30 min after administration) was 4152.8 ± 901.5 mmHg/s, the “change-rate … -MAX” value (anesthetized rats; 30 min after administration) was −3416.6 ± 767.5 mm/Hg/s and the contractive pressure (anesthetized rats; 30 min after administration) was 94.47 ± 17.17 mmHg. For the same compound, the diastolic pressure (anesthetized rats; 30 min after administration) was 48.00 ± 9.98 mmHg, the heart rate (anesthetized rats; 30 min after administration) was 322.02 ± 51.09 beat/min and the left intraventricular pressure (anesthetized rats; 30 min after administration) was 116.59 ± 13.59 mmHg. The mean arterial pressure (anesthetized rats; 30 min after administration) was 63.49 ± 11.93 mmHg, the “change-rate of left intraventricular pressure MAX” value (anesthetized rats; 60 min after administration) was 3919.4 ± 784.0 mmHg/s and the contractive pressure (anesthetized rats; 60 min after administration) was 98.49 ± 22.31 mmHg. It also gave a diastolic pressure (anesthetized rats; 60 min after administration) of 48.81 ± 11.47 mmHg, a heart rate (anesthetized rats; 60 min after administration) of 317.91 ± 58.04 beat/min and a left intraventricular pressure (anesthetized rats; 60 min after administration) of 115.68 ± 15.37 mmHg. The mean arterial pressure (anesthetized rats; 60 min after administration) was 65.37 ± 14.57 mmHg, the “change-rate of left intraventricular pressure MAX” value (anesthetized rats; 90 min after administration) was 3759.0 ± 814.5 mmHg/s and the “change-rate … -MAX” value (anesthetized rats; 90 min after administration) was −3247.4 ± 773.2 mm/Hg/s. For the same compound, the contractive pressure (anesthetized rats; 90 min after administration) was 99.15 ± 23.91 mmHg, the diastolic pressure (anesthetized rats; 90 min after administration) was 49.38 ± 13.27 mmHg and the heart rate (anesthetized rats; 90 min after administration) was 329.61 ± 55.70 beat/min. For the same compound, the left intraventricular pressure (anesthetized rats; 90 min after administration) was 115.10 ± 16.60 mmHg, the mean arterial pressure (anesthetized rats; 90 min after administration) was 65.97 ± 16.34 mmHg and the “change-rate of left intraventricular pressure MAX” value (anesthetized rats; 120 min after administration) was 4044.6 ± 844.9 mmHg/s. For the same compound, the “change-rate … -MAX” value (anesthetized rats; 120 min after administration) was −3452.2 ± 630.9 mm/Hg/s, the contractive pressure (anesthetized rats; 120 min after administration) was 102.58 ± 27.01 mmHg and the diastolic pressure (anesthetized rats; 120 min after administration) was 51.84 ± 13.93 mmHg. The heart rate (anesthetized rats; 120 min after administration) was 328.05 ± 58.98 beat/min, the left intraventricular pressure (anesthetized rats; 120 min after administration) was 118.39 ± 16.55 mmHg and the mean arterial pressure (anesthetized rats; 120 min after administration) was 68.75 ± 17.93 mmHg. For the same compound, the “change-rate of left intraventricular pressure MAX” value (anesthetized rats; before administration) was 5455.9 ± 1418.1 mmHg/s, the “change-rate … -MAX” value (anesthetized rats; before administration) was −4215.6 ± 1058.0 mm/Hg/s and the contractive pressure (anesthetized rats; before administration) was 137.10 ± 28.79 mmHg. For the same compound, the diastolic pressure (anesthetized rats; before administration) was 75.39 ± 19.27 mmHg, the heart rate (anesthetized rats; before administration) was 363.19 ± 46.67 beat/min and the left intraventricular pressure (anesthetized rats; before administration) was 137.79 ± 18.96 mmHg. For the same compound, the mean arterial pressure (anesthetized rats; before administration) was 95.96 ± 22.22 mmHg, the “dp/dt (in words)” value (anesthetized rats; verapamil group (11.4 mg/kg)) was “significantly reduced” and the “effect on the heart rate (in words)” value (anesthetized rats; verapamil group (11.4 mg/kg)) was “significantly reduced”. The “left intraventricular pressure (in words)” value (anesthetized rats; verapamil group (11.4 mg/kg)) was “significantly reduced”, the “−dp/dt (in words)” value (anesthetized rats; verapamil group (11.4 mg/kg)) was “significantly reduced” and the “mean arterial pressure, systolic pressure and diastolic pressure (in words)” value (anesthetized rats; verapamil group (11.4 mg/kg), 5-120 min) was “significantly reduce”. The MDA (malondialdehyde (MDA)) was 11.86 ± 5.93 nmol/mL, the CK-MB [2] was 776.6 ± 127.6 U/L and the LDH [3] was 1160.8 ± 145.0 U/L. For the same compound, the SOD [4] was 126.16 ± 28.10 U/mL, the CK (creatine kinase (CK)) was 752.2 ± 102.8 U/L and the “Elevation of ST-T segment” value ([5]; 0 min after modeling) was 0.23 ± 0.12 mV. For the same compound, the “Elevation of ST-T segment” value ([5]; 24 h after modeling) was 0.18 ± 0.04 mV, the “Elevation of ST-T segment, Change rate” value ([5]; 24 h after modeling) was 19.17 ± 20.94 % and the “Elevation of ST-T segment” value ([5]; before modeling) was 0.23 ± 0.04 mV.

— patent publication US8017786B2, “Substituted β-phenyl-α-hydroxy-propanoic acid, synthesis method and use thereof” (Northwest University, priority 2006, dated 2011)
